This passage reports IC50 results from patent US20160108027A1, “SUBSTITUTED BENZOXAZOLES” (BAYER PHARMA AKTIENGESELLSCHAFT, priority 2013, published 2016).

What is called IC50 is the concentration needed to halve the response being measured. A higher IC50 goes with weaker potency in that assay.

Experiment [1] concerns the target T1, thrombin (Homo sapiens, UniProt P00734). Nature of the experiment: Measurement of the thrombin inhibition in buffer. The note with it: human thrombin 0.06 nmol/l in Tris buffer pH 7.4, 22° C., substrate Boc-Asp(OBzl)-Pro-Arg-AMC; in some cases means of individual determinations. The experiment is classed as biochemical. An outline of the steps: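 Compound pre-incubated 15 min at 22° C with 0.06 nmol/l human thrombin in 50 mmol/l Tris, 100 mmol/l NaCl, 0.1% BSA, pH 7.4, then 5 μmol/l Boc-Asp(OBzl)-Pro-Arg-AMC added for 30 min. AMC fluorescence read at 360/460 nm against DMSO controls; IC50 from concentration–activity curves.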

Experiment [2] addresses T1, thrombin. Nature of the experiment: Determination of the thrombin-inhibitory activity in plasma samples (ecarin-activated). The experiment is classed as biochemical. To be noted: citrate plasma, ecarin activation, fluorogenic thrombin substrate; in some cases means of individual determinations. An outline of the steps: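 Citrate plasma activated with ecarin (final 20 mU per reaction) in Ca buffer (Hepes, NaCl, CaCl2, PEG), with compound diluted from DMSO into water. Fluorogenic thrombin substrate at final 50 μmol/l; fluorescence (ex 360/em 465 nm) read each minute for 20 minutes, with buffer-only unstimulated control.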

As to `COc1cc(C(=O)N2CC(C)(C)OCC2C(C)O)cc2nc(NCc3cc(Cl)ccn3)oc12` (single isomer, unassigned) [Example 96, (2-{[(4-Chloropyridin-2-yl)methyl]amino}-7-methoxy-1,3-benzoxazol-5-yl) [5-(1-hydroxyethyl)-2,2-dimethylmorpholin-4-yl]methanone], the half-inhibitory concentration (IC50) on thrombin [1] stood at 41 nM; against thrombin [2], 43 nM.

On to `CCO[C@@H]1CC(CO)N(C(=O)c2cc(OC)c3oc(NCc4cc(Cl)ccn4)nc3c2)C1` (stereo partly drawn) [Example 1, (2-{[(4-Chloropyridin-2-yl)methyl]amino}-7-methoxy-1,3-benzoxazol-5-yl)[(4R)-4-ethoxy-2-(hydroxymethyl)pyrrolidin-1-yl]methanone], for which the 50% inhibitory concentration (IC50) against thrombin [1] was determined as 15 nM; on thrombin [2], 25 nM.

For the molecule `CCO[C@@H]1CC(CO)N(C(=O)c2cc(OC)c3oc(NC(C)c4cc(Cl)ccn4)nc3c2)C1` (stereo partly drawn) [Example 4, (2-{[1-(4-Chloropyridin-2-yl)ethyl]amino}-7-methoxy-1,3-benzoxazol-5-yl)[(4R)-4-ethoxy-2-(hydroxymethyl)pyrrolidin-1-yl]methanone], the IC50 was found to be 39 nM against thrombin [1] and 66 nM at thrombin [2].

On to `COc1cc(C(=O)N2C[C@H](OC3CC3)C[C@H]2C(=O)N2CC(F)(F)C2)cc2nc(NCc3cc(Cl)ccn3)oc12` [Example 10, (2-{[(4-Chloropyridin-2-yl)methyl]amino}-7-methoxy-1,3-benzoxazol-5-yl){(2S,4R)-4-(cyclopropyloxy)-2-[(3,3-difluoroazetidin-1-yl)carbonyl]pyrrolidin-1-yl}methanone], for which the IC50 against thrombin [1] is 31 nM; against thrombin [2] it was 39 nM.

Take `COc1cc(C(=O)N2C[C@H](OC3CC3)C[C@H]2C(=O)N2CC(F)C2)cc2nc(NCc3cc(Cl)ccn3)oc12` [Example 11, (2-{[(4-Chloropyridin-2-yl)methyl]amino}-7-methoxy-1,3-benzoxazol-5-yl){(2S,4R)-4-(cyclopropyloxy)-2-[(3-fluoroazetidin-1-yl)carbonyl]pyrrolidin-1-yl}methanone]: the IC50 against thrombin [1] amounted to 31 nM; against thrombin [2], 101 nM.

Consider `COc1cc(C(=O)N2C[C@H](OC3CC3)C[C@H]2CO)cc2nc(NCc3cc(Cl)ccn3)oc12` [Example 12, (2-{[(4-Chloropyridin-2-yl)methyl]amino}-7-methoxy-1,3-benzoxazol-5-yl)[(2S,4R)-4-(cyclopropyloxy)-2-(hydroxymethyl)pyrrolidin-1-yl]methanone], for which the IC50 against thrombin [1] was found to be 4.4 nM; against thrombin [2], 8.9 nM.

`COc1cc(C(=O)N2C[C@H](OC3CC3)C[C@H]2CO)cc2nc(NC(C)c3cc(Cl)ccn3)oc12` (stereo partly drawn) [Example 13, (2-{[1-(4-Chloropyridin-2-yl)ethyl]amino}-7-methoxy-1,3-benzoxazol-5-yl)[(2S,4R)-4-(cyclopropyloxy)-2-(hydroxymethyl)pyrrolidin-1-yl]methanone]: the IC50 was 21 nM at thrombin [1] and 31 nM against thrombin [2].

Turning to `COc1cc(C(=O)N2CC(C)(CCO)OCC2CF)cc2nc(NCc3cc(Cl)ccn3)oc12` (stereo not shown) [Example 21, (2-{[(4-Chloropyridin-2-yl)methyl]amino}-7-methoxy-1,3-benzoxazol-5-yl) [5-(fluoromethyl)-2-(2-hydroxyethyl)-2-methylmorpholin-4-yl]methanone], the IC50 against thrombin [1] stood at 10 nM; at thrombin [2] it was 55 nM.

For the molecule `COc1cc(C(=O)N2CC(C)(CC(C)O)OC[C@H]2C)cc2nc(NC(C)c3cc(Cl)ccn3)oc12` (stereo partly drawn) [Example 26, (2-{[1-(4-Chloropyridin-2-yl)ethyl]amino}-7-methoxy-1,3-benzoxazol-5-yl)[(5R)-2-(2-hydroxypropyl)-2,5-dimethylmorpholin-4-yl]methanone], the results for the IC50 against thrombin [1] and at thrombin [2] were 6.2 nM and 44 nM, respectively.

In the case of `CC[C@@H]1COC(C)(CCO)CN1C(=O)c1cc(OC)c2oc(NCc3cc(Cl)ccn3)nc2c1` (stereo partly shown) [Example 28], the IC50 against thrombin [1] came out at 3.2 nM; against thrombin [2] it was 17 nM.

`COCC1COC(C)(CCO)CN1C(=O)c1cc(OC)c2oc(NCc3cc(Cl)ccn3)nc2c1` (stereo not shown) [Example 30]: the values for the IC50 against thrombin [1] and at thrombin [2] were 25 nM and 65 nM, respectively.

Consider `COc1cc(C(=O)N2CC(C)OCC2C2CC(O)C2)cc2nc(NCc3cc(Cl)ccn3)oc12` (stereo not shown) [Example 46, (2-{[(4-Chloropyridin-2-yl)methyl]amino}-7-methoxy-1,3-benzoxazol-5-yl) [5-(3-hydroxycyclobutyl)-2-methylmorpholin-4-yl]methanone], for which the IC50 against thrombin [1] came out at 14 nM; against thrombin [2] it was 23 nM.

Turning to `COc1cc(C(=O)N2CC(C)(CCO)OCC2C(F)F)cc2nc(NCc3cc(Cl)ccn3)oc12` (stereo not shown) [Example 54, (2-{[(4-Chloropyridin-2-yl)methyl]amino}-7-methoxy-1,3-benzoxazol-5-yl) [5-(difluormethyl)-2-(2-hydroxyethyl)-2-methylmorpholin-4-yl]methanone], the values for the IC50 against thrombin [1] and against thrombin [2] were 11 nM and 35 nM, respectively.

In the case of `COc1cc(C(=O)N2CC(C)(C)OC[C@H]2CCO)cc2nc(NCc3cc(Cl)ccn3)oc12` [Example 58, (2-{[(4-Chloropyridin-2-yl)methyl]amino}-7-methoxy-1,3-benzoxazol-5-yl)[(5R)-5-(2-hydroxyethyl)-2,2-dimethylmorpholin-4-yl]methanone], the IC50 against thrombin [1] amounted to 17 nM; against thrombin [2], 27 nM.

Turning to `COc1cc(C(=O)N2CC(C)(C)OC[C@H]2CCO)cc2nc(NC(C)c3cc(Cl)ccn3)oc12` (stereo partly drawn) [Example 59, (2-{[1-(4-Chloropyridin-2-yl)ethyl]amino}-7-methoxy-1,3-benzoxazol-5-yl)[(5R)-5-(2-hydroxyethyl)-2,2-dimethylmorpholin-4-yl]methanone], the results for the IC50 against thrombin [1] and against thrombin [2] were 60 nM and 90 nM, respectively.

On to `COc1cc(C(=O)N2CC(C)OC[C@@H]2[C@@H](C)O)cc2nc(NCc3cc(Cl)ccn3)oc12` (stereo partly drawn) [Example 68, (2-{[(4-Chloropyridin-2-yl)methyl]amino}-7-methoxy-1,3-benzoxazol-5-yl){(5R)-5-[(1R)-1-hydroxyethyl]-2-methylmorpholin-4-yl}methanone], for which the IC50 worked out at 59 nM against thrombin [1] and 72 nM against thrombin [2].

`COc1cc(C(=O)N2CC(C)(C)OCC2(C)C(C)O)cc2nc(NCc3cc(Cl)ccn3)oc12` (stereo not shown) [Example 69, (2-{[(4-Chloropyridin-2-yl)methyl]amino}-7-methoxy-1,3-benzoxazol-5-yl) [5-(1-hydroxyethyl)-2,2,5-trimethylmorpholin-4-yl]methanone]: the IC50 was 17 nM on thrombin [1] and 27 nM against thrombin [2].

Turning to `CCC1C(=O)N2CCC2CN1C(=O)c1cc(OC)c2oc(NCc3cc(Cl)ccn3)nc2c1` (stereo not shown) [Example 73, 4-[(2-{[(4-Chloropyridin-2-yl)methyl]amino}-7-methoxy-1,3-benzoxazol-5-yl)carbonyl]-3-ethyl-1,4-diazabicyclo[4.2.0]octan-2-one], the IC50 against thrombin [1] was found to be 51 nM; at thrombin [2], 50 nM.

Consider `COc1cc(C(=O)N2CC(C)CCC2CC2(O)CC2)cc2nc(NCc3cc(Cl)ccn3)oc12` (stereo not shown) [Example 87, (2-{[(4-Chloropyridin-2-yl)methyl]amino}-7-methoxy-1,3-benzoxazol-5-yl){2-[(1-hydroxycyclopropyl)methyl]-5-methylpiperidin-1-yl}methanone], for which the IC50 at thrombin [1] was 5.3 nM; on thrombin [2], 27 nM.

In the case of `[2H]C([2H])(C)O[C@@H]1CC(CO)N(C(=O)c2cc(OC)c3oc(NC(C)c4cc(Cl)ccn4)nc3c2)C1` (stereo partly drawn) [Example 97, (2-{[1-(4-Chloropyridin-2-yl)ethyl]amino}-7-methoxy-1,3-benzoxazol-5-yl)[(4R)-4-[(1,1-^2H2)ethyloxy]-2-(hydroxymethyl)pyrrolidin-1-yl]methanone], the figures for the IC50 at thrombin [1] and at thrombin [2] were 17 nM and 27 nM, respectively.
